Target: LSD-1 enzyme (Homo sapiens (Human), UniProt O60341)
Assay: LANCE LSD1/KDM1A demethylase assay (LSD1 histone demethylase biochemical assay)
Details: 1 nM LSD-1 enzyme, 1 hour preincubation at 25° C., 0.4 μM Biotin-labeled Histone H3 peptide substrate
Description: LSD1 Histone Demethylase Biochemical Assay
LANCE LSD1/KDM1A demethylase assay-10 μL of 1 nM LSD-1 enzyme (ENZO BML-SE544-0050) in the assay buffer (50 mM Tris, pH 7.5, 0.01% Tween-20, 25 mM NaCl, 5 mM DTT) were preincubated for 1 hour at 25° C. with 0.8 μL compound/DMSO dotted in black 384 well polystyrene plates. […] Reactions were stopped by addition of 10 μL 1× LANCE Detection Buffer (PerkinElmer CR97-100) supplemented with 1.5 nM Eu-anti-unmodified H3K4 Antibody (PerkinElmer TRF0404), and 225 nM LANCE Ultra Streptavidin (PerkinElmer TRF102) along with 0.9 mM Tranylcypromine-HCl (Millipore 616431). After stopping the reactions plates were incubated for 30 minutes and read on a PHERAstar FS plate reader (BMG Labtech).

Q: For C[C@@H](O)c1nc2cc(-c3c(-c4ccc(C#N)cc4)nc(N4CCC(N(C)C)CC4)c4nccn34)ccc2n1C [Example 113, 4-(8-[4-(dimethylamino)piperidin-1-yl]-5-{2-[(1R)-1-hydroxyethyl]-1-methyl-1H-benzimidazol-5-yl}imidazo[1,2-a]pyrazin-6-yl)benzonitrile], which IC50 is on record?
A: ≤ 50 nM

Q: How did the IC50 turn out when CNC(=O)c1cn2c(-c3ccc(C)cc3)c(-c3ccc(C#N)cc3)nc(OC[C@@H]3CCNC3)c2n1 [Example 37, 6-(4-cyanophenyl)-N-methyl-5-(4-methylphenyl)-8-[(3R)-pyrrolidin-3-ylmethoxy]imidazol-[1,2-a]pyrazine-2-carboxamide] was run?
A: ≤ 50 nM

Q: With Cc1ccc(-c2c(-c3ccc(C#N)cc3)nc(OC[C@@H]3CCNC3)c3nc(C(=O)N(C)C)cn23)cc1 [Example 38, 6-(4-cyanophenyl)-N,N-dimethyl-5-(4-methylphenyl)-8-[(3R)-pyrrolidin-3-ylmethoxy]imidazo[1,2-a]pyrazine-2-carboxamide] as the molecule, how does the IC50 read?
A: ≤ 50 nM

Q: With Cc1ccc(-c2c(-c3ccc(C#N)cc3)nc(OC[C@@H]3CCNC3)c3nc(CN(C)C)cn23)cc1 [Example 42, 4-{2-[(dimethylamino)methyl]-5-(4-methylphenyl)-8-[(3R)-pyrrolidin-3-ylmethoxy]imidazol[1,2-a]pyrazin-6-yl}benzonitrile] as the molecule, how does the IC50 read?
A: ≤ 50 nM

Q: Cc1ccc(-c2c(-c3ccc(C#N)cc3)nc(OC[C@@H]3CCCN(C)C3)c3nccn23)cc1C(C)O (stereo partly drawn) [Example 87, 4-(5-[3-(1-hydroxyethyl)-4-methylphenyl]-8-{[(3R)-1-methylpiperidin-3-yl]methoxy}imidazo[1,2-a]pyrazin-6-yl)benzonitrile] was tested. Which IC50 did it give?
A: ≤ 50 nM

Q: Which IC50 does the source give for Cc1ccc(-c2c(-c3ccc(C#N)cc3)nc(OC[C@@H]3CCNC3)c3nc(C(=O)NC4CC4)cn23)cc1 [Example 39, 6-(4-cyanophenyl)-N-cyclopropyl-5-(4-methylphenyl)-8-[(3R)-pyrrolidin-3-ylmethoxy]imidazol[1,2-a]pyrazine-2-carboxamide] here?
A: ≤ 50 nM

Q: CN1C(=O)Cc2cc(-c3c(-c4ccc(C#N)cc4)nc(N4CCC(N(C)C)CC4)c4nccn34)ccc21 [Example 98, 4-[8-[4-(dimethylamino)piperidin-1-yl]-5-(1-methyl-2-oxo-2,3-dihydro-1H-indol-5-yl)imidazo[1,2-a]pyrazin-6-yl]benzonitrile] was tested. Which IC50 did it give?
A: ≤ 50 nM

Q: Which IC50 does the source give for CN(C)C1CCN(c2nc(-c3ccc(C#N)cc3)c(-c3ccc4c(c3)c(N)nn4C)n3ccnc23)CC1 [Example 68, 4-{5-(3-amino-1-methyl-1H-indazol-5-yl)-8-[4-(dimethylamino)piperidin-1-yl]imidazo[1,2-a]pyrazin-6-yl}benzonitrile] here?
A: ≤ 50 nM

Q: With Cc1ccc(-c2c(-c3ccc(C#N)cc3)nc(OC[C@@H]3CCN(C)C3)c3nccn23)cc1 [Example 11, 4-(5-(4-methylphenyl)-8-{[(3R)-1-methylpyrrolidin-3-yl]methoxy}imidazo[1,2-a]pyrazin-6-yl)benzonitrile] as the molecule, how does the IC50 read?
A: ≤ 50 nM

Q: Cc1ccc(-c2c(-c3ccc(C#N)cc3)nc(OC[C@@H]3CCCN(C)C3)c3nccn23)cc1C#N [Example 69, 5-(6-(4-cyanophenyl)-8-{[(3R)-1-methylpiperidin-3-yl]methoxy}imidazo[1,2-a]pyrazin-5-yl)-2-methylbenzonitrile] was tested. Which IC50 did it give?
A: ≤ 50 nM

Q: With Cc1cc(-c2c(-c3ccc(C#N)cc3)nc(OC[C@@H]3CCCN(C)C3)c3nccn23)ccc1CO [Example 72, 4-(5-[4-(hydroxymethyl)-3-methylphenyl]-8-{[(3R)-1-methylpiperidin-3-yl]methoxy}imidazo[1,2-a]pyrazin-6-yl)benzonitrile] as the molecule, how does the IC50 read?
A: ≤ 50 nM

Q: For CN1CCC[C@@H](COc2nc(-c3ccc(C#N)cc3)c(-c3ccc4c(c3)C(O)CC4)n3ccnc23)C1 (stereo partly drawn) [Example 73, 4-(5-(3-hydroxy-2,3-dihydro-1H-1-inden-5-yl)-8-{[(3R)-1-methylpiperidin-3-yl]methoxy}imidazo[1,2-a]pyrazin-6-yl)benzonitrile], which IC50 is on record?
A: ≤ 50 nM

Q: How did the IC50 turn out when CN(C)C1CCN(c2nc(-c3ccc(C#N)cc3)c(-c3ccc4nccnc4c3)n3ccnc23)CC1 [Example 101, 4-{8-[4-(dimethylamino)piperidin-1-yl]-5-quinoxalin-6-ylimidazo[1,2-a]pyrazin-6-yl}benzonitrile] was run?
A: ≤ 50 nM

Q: Which IC50 does the source give for Cc1ccc(-c2c(-c3ccc(C#N)cc3)nc(OC[C@@H]3CCCNC3)c3nccn23)cc1 [Example 9, 4-{5-(4-methylphenyl)-8-[(3R)-piperidin-3-ylmethoxy]imidazo[1,2-a]pyrazin-6-yl}benzonitrile] here?
A: ≤ 50 nM

Q: With CCn1c(=O)oc2cc(-c3c(-c4ccc(C#N)cc4)nc(N4CCC(N(C)C)CC4)c4nccn34)cnc21 [Example 105, 4-[8-[4-(dimethylamino)piperidin-1-yl]-5-(3-ethyl-2-oxo-2,3-dihydro[1,3]oxazolo[4,5-b]pyridin-6-yl)imidazo[1,2-a]pyrazin-6-yl]benzonitrile] as the molecule, how does the IC50 read?
A: ≤ 50 nM

Q: Which IC50 does the source give for CN(C)C1CCN(c2nc(-c3ccc(C#N)cc3)c(-c3ccc4c(c3)CC(O)C4)n3ccnc23)CC1 (racemic) [Example 93, 4-[8-[4-(dimethylamino)piperidin-1-yl]-5-(2-hydroxy-2,3-dihydro-1H-inden-5-yl)imidazo[1,2-a]pyrazin-6-yl]benzonitrile] here?
A: ≤ 50 nM

Q: With Cc1cc(-c2c(-c3ccc(C#N)cc3)nc(N3CCC(N(C)C)CC3)c3nccn23)cc(F)c1CO [Example 97, 4-{8-[4-(dimethylamino)piperidin-1-yl]-5-[3-fluoro-4-(hydroxymethyl)-5-methylphenyl]imidazo[1,2-a]pyrazin-6-yl}benzonitrile] as the molecule, how does the IC50 read?
A: ≤ 50 nM

Q: CN(C)C1CCN(c2nc(-c3ccc(C#N)cc3)c(-c3cc4oc(=O)n(C)c4cc3F)n3ccnc23)CC1 [Example 62, 4-[8-[4-(dimethylamino)piperidin-1-yl]-5-(5-fluoro-3-methyl-2-oxo-2,3-dihydro-1,3-benzoxazol-6-yl)imidazo[1,2-a]pyrazin-6-yl]benzonitrile] was tested. Which IC50 did it give?
A: ≤ 50 nM

Q: Which IC50 does the source give for Cc1ccc(-c2c(-c3ccc(C#N)cc3)nc(OC[C@@H]3CCNC3)c3nccn23)cc1 [Example 1, 4-{5-(4-methylphenyl)-8-[(3R)-pyrrolidin-3-ylmethoxy]imidazo[1,2-a]pyrazin-6-yl}benzonitrile] here?
A: ≤ 50 nM

Q: Which IC50 does the source give for N#Cc1ccc(-c2nc(OC[C@@H]3CCNC3)c3nccn3c2-c2ccc(N3CCCCC3)cc2)cc1 [Example 29, 4-{5-(4-piperidin-1-ylphenyl)-8-[(3R)-pyrrolidin-3-ylmethoxy]imidazo[1,2-a]pyrazin-6-yl}benzonitrile] here?
A: ≤ 50 nM

Q: With CN(C)C1CCN(c2nc(-c3ccc(C#N)cc3)c(-c3cnc4c(cnn4C)c3)n3ccnc23)CC1 [Example 58, 4-[8-[4-(dimethylamino)piperidin-1-yl]-5-(1-methyl-1H-pyrazolo[3,4-b]pyridin-5-yl)imidazo[1,2-a]pyrazin-6-yl]benzonitrile] as the molecule, how does the IC50 read?
A: ≤ 50 nM

Q: With COc1ncc(-c2c(-c3ccc(C#N)cc3)nc(N3CCC(N(C)C)CC3)c3nccn23)cc1O [Example 118, 4-[8-[4-(dimethylamino)piperidin-1-yl]-5-(5-hydroxy-6-methoxypyridin-3-yl)imidazo[1,2-a]pyrazin-6-yl]benzonitrile] as the molecule, how does the IC50 read?
A: ≤ 50 nM

Q: How did the IC50 turn out when Cc1ccc(-c2c(-c3ccc(C#N)cc3)nc(OC[C@H]3CCCNC3)c3nccn23)cc1 [Example 10, 4-{5-(4-methylphenyl)-8-[(3S)-piperidin-3-ylmethoxy]imidazol[1,2-a]pyrazin-6-yl}benzonitrile] was run?
A: ≤ 50 nM

Q: CN1C(=O)COc2cc(-c3c(-c4ccc(C#N)cc4)nc(N4CCC(N(C)C)CC4)c4nccn34)cnc21 [Example 107, 4-[8-[4-(dimethylamino)piperidin-1-yl]-5-(4-methyl-3-oxo-3,4-dihydro-2H-pyrido[3,2-b][1,4]oxazin-7-yl)imidazo[1,2-a]pyrazin-6-yl]benzonitrile] was tested. Which IC50 did it give?
A: ≤ 50 nM

Q: With CN(C)C1CCN(c2nc(-c3ccc(C#N)cc3)c(-c3cnc4c(ccn4C)c3)n3ccnc23)CC1 [Example 112, 4-[8-[4-(dimethylamino)piperidin-1-yl]-5-(1-methyl-1H-pyrrolo[2,3-b]pyridin-5-yl)imidazo[1,2-a]pyrazin-6-yl]benzonitrile] as the molecule, how does the IC50 read?
A: ≤ 50 nM

Q: With CN1CCC[C@@H](COc2nc(-c3ccc(C#N)cc3)c(-c3cnc4c(ccn4C)c3)n3ccnc23)C1 [Example 53, 4-[8-{[(3R)-1-methylpiperidin-3-yl]methoxy}-5-(1-methyl-1H-pyrrolo[2,3-b]pyridin-5-yl)imidazo[1,2-a]pyrazin-6-yl]benzonitrile] as the molecule, how does the IC50 read?
A: ≤ 50 nM

Q: For Cn1ncc2cc(-c3c(-c4ccc(C#N)cc4)nc(OC[C@@H]4CCCN(CCO)C4)c4nccn34)ccc21 [Example 65, 4-[8-{[(3R)-1-(2-hydroxyethyl)piperidin-3-yl]methoxy}-5-(1-methyl-1H-indazol-5-yl)imidazo[1,2-a]pyrazin-6-yl]benzonitrile], which IC50 is on record?
A: ≤ 50 nM

Q: For CN1CCC[C@@H](COc2nc(-c3ccc(C#N)cc3)c(-c3cc(F)c4c(c3)C(O)CC4)n3ccnc23)C1 (stereo partly drawn) [Example 79, 4-(5-(7-fluoro-3-hydroxy-2,3-dihydro-1H-inden-5-yl)-8-{[(3R)-1-methylpiperidin-3-yl]methoxy}imidazo[1,2-a]pyrazin-6-yl)benzonitrile], which IC50 is on record?
A: ≤ 50 nM

Q: For Cc1ccc(-c2c(-c3ccc(C#N)cc3)nc(OC3CCN(C)C3)c3nccn23)cc1 (stereo not drawn) [Example 7, 4-{5-(4-methylphenyl)-8-[(1-methylpyrrolidin-3-yl)oxy]imidazo[1,2-a]pyrazin-6-yl}benzonitrile], which IC50 is on record?
A: ≤ 50 nM

Q: Which IC50 does the source give for Cc1ncc(-c2c(-c3ccc(C#N)cc3)nc(N3CCC(N(C)C)CC3)c3nccn23)cc1O [Example 94, 4-[8-[4-(dimethylamino)piperidin-1-yl]-5-(5-hydroxy-6-methylpyridin-3-yl)imidazo[1,2-a]pyrazin-6-yl]benzonitrile] here?
A: ≤ 50 nM

Source: US10112950B2, “Substituted imidazo[1,2-a]pyrazines as LSD1 inhibitors” (Incyte Corporation, priority 2014, dated 2018)
